Experimental data from patent publication US20080275215A1, “Fluorescein-Based Compounds And Their Use For Peptide Synthesis” (COMMISSARIAT A L'ENERGIE ATOMIQUE, priority 2005, published 2008).

What was measured:
Format in all cases: physicochemical
[1] = Dye photostability (photobleaching) study under fluorescence microscope; conditions: after 6 min of irradiation
Protocol: Super-Teflon glass slides (VWR International) carrying 40 circular wells of 2 mm diameter, separated by 30 μm-thick Teflon coating were used in dye photostability study. A well was filled with 1 μl of 5 mM fluorescein compounds k) (dye 15) or 1) (dye 16) solution in 50 mM sodium tetraborate buffer pH 9.8 and was enclosed with a coverslip.
The entire well volume was irradiated under the microscope with standard “fluorescein” filters set. The intensity delivered by the source on the surface of the slide was measured with a COHERENT LaserCheck probe, and found to be ˜6 mW/cm^2 at 488 nm. Well images were recorded regularly with IMSTAR software and mean fluorescence intensity was calculated.
For comparison of the photostability of fluorophores under the condition of signal acquisition with fluorescent microscope, the sample was placed in a well on the surface of a glass slide that contains 40 circular wells of 2 mm diameter, separated by 30 μm-thick Teflon coating. The well was then enclosed with a coverslip producing a cylindrical sample chamber of ˜380 nl volume. […] The resulted light intensity at the chamber level was measured to be ˜6 mW/mm^2. At different times the fluorescence images of the well were taken and mean fluorescence intensity was calculated using IMSTAR software (Khomyakova et al., previously cited).

[2] = pH effect on fluorescence; conditions: range of pH 4.0-10.0; λexc 488 nm/λem 515 nm
Protocol: To measure the pH effect on fluorescence, 50 nM of fluorescent compounds k) (dye 15) or l) (dye 16) solution in 50 mM sodium tetraborate buffer (pH 9.8) was slowly titrated with HCl, aliquots were taken between pH 9.8 and 4, and fluorescence was measured at λexc 488 nm/λem 515 nm.

[3] = Fluorescence emission spectra and fluorescence quantum yield; conditions: for fluorescence emission λmax: 50 mM sodium tetraborate buffer pH 9.8; for fluorescence quantum yield φ: alkaline fluorescein as reference
Protocol: (§1) Standard UV-visible and fluorescence spectra were recorded in 50 mM sodium tetraborate buffer pH 9.8 at 0.5-10 μM fluorescent compounds concentration. The fluorescence quantum yield of the fluorescent compounds was determined as described by Adamczyk et al. (previously cited) using alkaline solution of fluorescein as a reference (φ=0.92) (Lohse et al.; Adamczyk et al.; Klonis et al. and Martin et al., all previously cited).

[4] = Stability of 2'-ester toward alkaline hydrolysis; conditions: several hours in aqueous pH 9.8 buffer
Description: This is explained by the absence of ionic equilibrium in 3-O-alkyl fluorescein derivatives trapped in a tautomeric quinoid form by 2′-esterification. The stability of 2′-ester toward an alkaline hydrolysis was also checked by following the absorbance and fluorescence spectra.

[5] = UV-visible absorbance spectra; conditions: for absorbance maximum (longer wavelength) / absorbance maximum (shorter wavelength): 50 mM sodium tetraborate buffer pH 9.8; for molar extinction coefficient: at 456 nm
Protocol: as §1

Compound: CCOC(=O)c1cc(NC(C)=O)ccc1-c1c2ccc(=O)cc-2oc2cc(OCC(=O)O)ccc12 [k), 5-acetylamino-2-(6-carboxymethoxy-3-oxo-3H-xanthen-9-yl)-benzoic acid ethyl ester]
- decrease in fluorescence [1]: ~10%
- pH-dependence of fluorescence and quantum yield [2]: virtually pH-independent
- fluorescence emission λmax [3]: 520 nm
- fluorescence quantum yield φ [3]: 0.19
- changes in absorbance and fluorescence spectra (2'-ester alkaline hydrolysis) [4]: No significant changes
- absorbance maximum (longer wavelength) [5]: 481 nm
- absorbance maximum (shorter wavelength) [5]: 456 nm
- molar extinction coefficient [5]: 22000 L/mol/cm

Compound: CCOC(=O)c1ccc(NC(C)=O)cc1-c1c2ccc(=O)cc-2oc2cc(OCC(=O)O)ccc12 [l), 4-acetylamino-2-(6-carboxymethoxy-3-oxo-3H-xanthen-9-yl)-benzoic acid ethyl ester]
- decrease in fluorescence [1]: ~10%
- pH-dependence of fluorescence and quantum yield [2]: virtually pH-independent
- fluorescence emission λmax [3]: 520 nm
- fluorescence quantum yield φ [3]: 0.18
- changes in absorbance and fluorescence spectra (2'-ester alkaline hydrolysis) [4]: No significant changes
- absorbance maximum (longer wavelength) [5]: 481 nm
- absorbance maximum (shorter wavelength) [5]: 456 nm
- molar extinction coefficient [5]: 23000 L/mol/cm
